# Test results taken from patent publication US6686350B1, “Cell adhesion inhibitors” (Biogen, Inc., priority 1996, dated 2004).
# Target: T1, VLA-4 (Homo sapiens, UniProt P05556+P13612)
# T1 construct: endogenous in cells; host or cells: Jurkat cells
# Test: VLA-4 direct binding assay (VCAM-IgG alkaline phosphatase conjugate binding to Jurkat cells)
# Conditions: Table 1, Structure-Activity; assay and unit inferred; read-out: Act
# From the text: A direct binding assay may also be employed to quantitate the inhibitory activity of the compounds of this invention. (“DBA”) In direct binding assays, for example, a VCAM-IgG fusion protein containing the first two immunoglobulin domains of VCAM (D1D2) attached above the hinge region of an IgG1 molecule (“VCAM 2D-IgG”), is conjugated to a marker enzyme, such as alkaline phosphatase (“AP”). The synthesis of this VCAM-IgG fusion is described in PCT publication WO 90/13300, the disclosure of which is herein incorporated by reference. The conjugation of that fusion to a marker enzyme can be achieved by cross-linking methods well-known in the art.
# The VCAM-IgG enzyme conjugate is then placed in the wells of a multi-well filtration plate, such as that contained in the Millipore Multiscreen Assay System (Millipore Corp., Bedford, Mass.). Varying concentrations of the test inhibitory compound are then added to the wells followed by addition of VLA-4-expressing cells. The cells, compound and VCAM-IgG enzyme conjugate are mixed together and allowed to incubate at room temperature.
# Following incubation, the wells are vacuum drained, leaving behind the cells and any bound VCAM. Quantitation of bound VCAM is determined by adding an appropriate calorimetric substrate for the enzyme conjugated to VCAM-IgG and determining the amount of reaction product. Decreased reaction product indicates increased binding inhibitory activity. The protocol is described more specifically below:
# 1. Block a 96 well Millipore Multiscreen Assay System filtration plate^1 with 200:l/well of blocking buffer (1×Phosphate Buffered Saline, 0.1%Tween 20, 1%BSA) for at least 1 hour at room temperature.
# 2. Drain the plate with the vacuum manifold, and wash with 200 μl/well of assay buffer (Tris Buffered Saline, 0.1% BSA, 2 mM glucose, 10 mM HEPES, pH 7.5) draining the plate in between. Repeat twice. Then blot the plate bottom on paper to remove excess buffer.
# 3. Prepare a 4 μg/ml VCAMIg-AP solution (Alkaline phosphatase coupled to VCAMIg) in assay buffer and filter with a 0.2:low protein binding syringe filter (Gelman Sciences #4454). From this stock, prepare a 0.4 μg/ml working solution of VCAMIg-AP in assay buffer. Add 25:l of 0.4 μg/ml VCAMIg-AP to every well.
# 5. Prepare dilutions of compounds to be tested in assay buffer. Concentrations should be 4× the desired final concentration and run in triplicate. Add 25 μl of the compound dilutions to designated wells.
# 7. Jurkat cells are centrifuged to remove cell culture media and washed once in assay buffer. Resuspend the washed Jurkat cells to a concentration of 8×10^6/ml in assay buffer containing 2 mM MnCl2. Pipeting the mixture up and down to ensure a uniform cell suspension. Add 50:l of cell suspension to each well except the NSB wells.
# 8. Gently tap the sides of the plate to mix well contents. Incubate the plate for 60 minutes at room temperature (RT).
# 9. Place the plate on the vacuum manifold to drain the well contents. Wash twice with 100 μl/well of wash buffer (assay buffer containing 1 mM MnCl2). Drain the plate and blot on paper towels.
# 10. Add 10 mg/ml of 4-Nitro phenyl phosphate to Substrate buffer (0.1M glycine, 1 mM ZnCl2, 1 mM MgCl2, pH 10.5). Add 100 μl/well and incubate for exactly 30 minutes at RT.
# 11. To stop the reaction, add 100 μl/well of 3N NaOH.
# 12. Read the 96-well plate in a Molecular Devices ELISA platereader at 405 nm. Analyze data with SoftMax software.
# T1 sequence (P13612 34-1032): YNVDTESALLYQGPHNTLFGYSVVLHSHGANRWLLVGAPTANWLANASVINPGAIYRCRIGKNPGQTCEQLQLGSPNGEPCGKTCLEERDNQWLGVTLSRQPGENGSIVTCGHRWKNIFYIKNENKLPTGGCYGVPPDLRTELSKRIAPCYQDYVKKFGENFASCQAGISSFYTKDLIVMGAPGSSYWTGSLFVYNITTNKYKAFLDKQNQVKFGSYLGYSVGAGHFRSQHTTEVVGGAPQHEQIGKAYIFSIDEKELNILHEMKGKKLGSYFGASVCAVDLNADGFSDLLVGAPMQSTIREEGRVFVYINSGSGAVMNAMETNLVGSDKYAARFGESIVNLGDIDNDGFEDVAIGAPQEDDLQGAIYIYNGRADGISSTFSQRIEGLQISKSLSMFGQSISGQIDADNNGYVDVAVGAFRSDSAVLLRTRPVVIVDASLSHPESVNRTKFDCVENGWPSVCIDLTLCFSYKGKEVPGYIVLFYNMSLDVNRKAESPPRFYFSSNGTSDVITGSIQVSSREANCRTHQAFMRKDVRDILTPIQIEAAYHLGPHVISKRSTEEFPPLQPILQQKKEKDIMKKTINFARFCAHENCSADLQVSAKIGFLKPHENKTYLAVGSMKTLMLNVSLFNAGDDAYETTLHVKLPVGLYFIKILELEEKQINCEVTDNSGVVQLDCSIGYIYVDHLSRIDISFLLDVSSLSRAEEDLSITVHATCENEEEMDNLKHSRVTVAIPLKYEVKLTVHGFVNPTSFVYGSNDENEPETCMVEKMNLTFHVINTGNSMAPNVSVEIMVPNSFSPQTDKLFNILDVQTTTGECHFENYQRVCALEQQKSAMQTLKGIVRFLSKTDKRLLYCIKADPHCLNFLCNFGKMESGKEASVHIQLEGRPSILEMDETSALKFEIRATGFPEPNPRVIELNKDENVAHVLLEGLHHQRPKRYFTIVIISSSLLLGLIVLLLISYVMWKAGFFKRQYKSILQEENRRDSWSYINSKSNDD
# T1 sequence (P05556 21-798): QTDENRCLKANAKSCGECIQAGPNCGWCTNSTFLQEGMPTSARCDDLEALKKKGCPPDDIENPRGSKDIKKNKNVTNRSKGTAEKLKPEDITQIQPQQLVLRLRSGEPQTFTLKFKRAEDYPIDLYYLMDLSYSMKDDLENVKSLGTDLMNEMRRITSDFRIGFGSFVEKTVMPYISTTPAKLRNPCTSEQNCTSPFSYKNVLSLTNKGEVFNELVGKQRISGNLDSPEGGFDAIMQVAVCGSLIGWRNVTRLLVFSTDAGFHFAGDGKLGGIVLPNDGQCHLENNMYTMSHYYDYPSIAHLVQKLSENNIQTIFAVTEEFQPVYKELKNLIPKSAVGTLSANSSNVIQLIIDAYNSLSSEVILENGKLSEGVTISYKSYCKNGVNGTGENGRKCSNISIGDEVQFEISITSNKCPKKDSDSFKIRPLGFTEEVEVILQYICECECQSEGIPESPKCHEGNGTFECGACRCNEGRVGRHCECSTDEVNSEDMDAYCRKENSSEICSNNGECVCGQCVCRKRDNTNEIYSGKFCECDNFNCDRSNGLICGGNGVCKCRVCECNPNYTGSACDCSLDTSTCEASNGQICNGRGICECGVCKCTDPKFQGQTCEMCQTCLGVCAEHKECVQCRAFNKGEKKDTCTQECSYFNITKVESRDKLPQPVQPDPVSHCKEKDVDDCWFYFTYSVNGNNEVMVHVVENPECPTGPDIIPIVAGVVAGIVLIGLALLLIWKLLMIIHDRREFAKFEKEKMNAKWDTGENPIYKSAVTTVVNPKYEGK
row,Compound,IC50
1,COc1cccc(C(=O)N(CCC(=O)O)CC(=O)N(CCC(C)C)CC(=O)Nc2ccc3c(c2)C(=O)CCCC3)c1 [AX3],15300 nM
2,COc1cccc(C(=O)N(CCC(=O)O)CC(=O)N(CCC(C)C)CC(=O)Nc2ccc(-n3cnc(Cl)c3Cl)cc2)c1 [AX4],15200 nM
3,COc1cccc(C(=O)N(CCC(=O)O)CC(=O)N(CCC(C)C)CC(=O)Nc2ccc(-c3nnc(-c4ccccc4)o3)cc2)c1 [AX5],35 nM
4,CSCCCN(CC(=O)Nc1ccccc1)C(=O)CN(CCC(=O)O)C(=O)c1ccccc1 [AX6],13500 nM
5,COc1ccc(C(=O)N(CCC(=O)O)CC(=O)N(CCC(C)C)CC(=O)Nc2ccccc2)cc1 [AX7],11500 nM
6,COc1cccc(C(=O)N(CCC(=O)O)CC(=O)N(CCC(C)C)CC(=O)Nc2ccc(N3CCOCC3)c(Cl)c2)c1 [AX9],7380 nM
7,CC(C)CCN(CC(=O)Nc1ccccc1)C(=O)CN(CCC(=O)O)C(=O)c1ccccc1 [AX12],4120 nM
8,COc1cccc(C(=O)N(CCC(=O)O)CC(=O)N(CCC(C)C)CC(=O)Nc2cccc(OCCOc3ccccc3)c2)c1 [AX13],3160 nM
9,COc1cccc(C(=O)N(CCC(=O)O)CC(=O)N(CCC(C)C)CC(=O)Nc2cccc(C(=O)CC(=O)Nc3nccs3)c2)c1 [AX15],2410 nM
10,COc1cccc(C(=O)N(CCC(=O)O)CC(=O)N(CCC(C)C)CC(=O)Nc2ccc(NC(=O)c3cc4ccccc4cn3)cc2)c1 [AX16],2840 nM
11,COc1cccc(C(=O)N(CCC(=O)O)CC(=O)N(CCC(C)C)CC(=O)Nc2ccccc2)c1 [AX18],1400 nM
12,COc1cccc(C(=O)N(CCC(=O)O)CC(=O)N(CCC(C)C)CC(=O)Nc2ccc(OCC(=O)Nc3ccccc3)cc2)c1 [AX19],6190 nM
13,COc1cccc(C(=O)N(CCC(=O)O)CC(=O)N(CCC(C)C)CC(=O)Nc2ccc(CC(=O)N3CCc4ccccc43)cc2)c1 [AX21],761 nM
14,Cc1ccccc1NC(=O)Nc1ccc(NC(=O)CN(CCC(C)C)C(=O)CN(CCC(=O)O)C(=O)CN2CCCCC2)cc1 [AX22],636 nM
15,COc1cccc(C(=O)N(CCC(=O)O)CC(=O)N(CCC(C)C)CC(=O)Nc2ccc(C(=O)CC(=O)Nc3ccccc3Cl)cc2)c1 [AX23],580 nM
16,CC(C)CN(CC(=O)Nc1ccc(NC(=O)Nc2ccccc2)cc1)C(=O)CN(CCC(=O)O)C(=O)Cc1ccccc1 [AX24],300 nM
17,Cc1ccccc1NC(=O)Nc1ccc(NC(=O)CN(CCC(C)C)C(=O)CN(CCC(=O)O)C(=O)COc2ccccc2)cc1 [AX25],246 nM
18,COc1cccc(C(=O)N(CCC(=O)O)CC(=O)N(CCC(C)C)CC(=O)Nc2ccc(NC(=O)c3c[nH]c4ccccc34)cc2)c1 [AX26],240 nM
19,CSCCCN(CC(=O)Nc1ccc(NC(=O)Nc2ccccc2)cc1)C(=O)CN(CCC(=O)O)C(=O)c1ccccc1 [AX27],200 nM
20,CC(C)CN(CC(=O)Nc1ccc(NC(=O)Nc2ccccc2)cc1)C(=O)CN(CCC(=O)O)C(=O)c1ccccc1 [AX28],150 nM
21,Cc1ccccc1NC(=O)Nc1ccc(NC(=O)CN(CCC(C)C)C(=O)CN(CCC(=O)O)C(=O)C2CCCCC2)cc1 [AX29],890 nM
22,CC(C)CCN(CC(=O)Nc1ccc(NC(=O)Nc2ccccc2)cc1)C(=O)CN(CCC(=O)O)C(=O)c1ccccc1 [AX33],95 nM
23,Cc1ccccc1NC(=O)Nc1ccc(NC(=O)CN(CCC(C)C)C(=O)CN(CCC(=O)O)C(=O)COc2ccccc2)cc1 [AX34],92 nM
24,Cc1ccccc1NC(=O)Nc1ccc(NC(=O)[C@@H]2CCCN2C(=O)CN(CCC(=O)O)C(=O)c2ccccc2)cc1 [AX35],85 nM
25,Cc1ccccc1NC(=O)Nc1ccc(NC(=O)CN(CCC(C)C)C(=O)CN(CCC(=O)O)C(=O)CBr)cc1 [AX36],63.2 nM
26,Cc1ccccc1NC(=O)Nc1ccc(NC(=O)CN(CCC(C)C)C(=O)CN(CCC(=O)O)C(=O)N2CCOCC2)cc1 [AX37],60.5 nM
27,Cc1ccccc1NC(=O)Nc1ccc(NC(=O)CN(CCC(=O)O)C(=O)CN(CCC(=O)O)C(=O)c2ccccc2)cc1 [AX38],60 nM
28,Cc1ccccc1NC(=O)Nc1ccc(NC(=O)[C@@H]2CSCN2C(=O)CN(CCC(=O)O)C(=O)c2ccccc2)cc1 [AX39],60 nM

row,Compound,IC50
1,Cc1ccccc1NC(=O)Nc1ccc(NC(=O)CN(CCC(C)C)C(=O)CN(CCC(=O)O)C(=O)CN2CCOCC2)cc1 [AX42],52 nM
2,Cc1c(C(=O)Nc2ccc3c(c2)C(=O)N(CCC(=O)O)CC(=O)N3C)c(=O)n(-c2ccccc2)n1C [BX6],15400 nM
3,CN1C(=O)CN(CCC(=O)O)C(=O)c2cc(NC(=O)Cc3ccc(NC(=O)Cc4c[nH]c5ccccc45)cc3)ccc21 [BX11],9050 nM
4,CN1C(=O)CN(CCC(=O)O)C(=O)c2cc(NC(=O)Cc3ccc(NC(=O)c4ccco4)cc3)ccc21 [BX12],6100 nM
5,CC1=NN(c2ccc(C(=O)Nc3ccc4c(c3)C(=O)N(CCC(=O)O)CC(=O)N4C)cc2)C(=O)C1 [BX13],5860 nM
6,Cc1ccccc1NC(=O)Nc1ccc(CC(=O)Nc2ccc3c(c2)C(=O)N(CCCCC(=O)O)CC(=O)N3C)cc1 [BX15],5130 nM
7,Cc1ccccc1NC(=O)Nc1ccc(CC(=O)NCc2ccc3c(c2)C(=O)N(CCC(=O)O)CC(=O)N3C)cc1 [BX16],5120 nM
8,Cc1ccccc1NC(=O)Nc1ccc(NC(=O)c2ccc3c(c2)C(=O)N(CCC(=O)O)CC(=O)N3C)cc1 [BX17],977 nM
9,Cc1ccccc1NC(=O)Nc1ccc(CNC(=O)c2ccc3c(c2)CN(C)C(=O)C(CC(=O)O)N3)cc1 (stereo not shown) [BX18],4430 nM
10,Cc1ccccc1NC(=O)Nc1ccc(CC(=O)N(C)c2ccc3c(c2)C(=O)N(CCC(=O)O)CC(=O)N3C)cc1 [BX23],3240 nM
11,Cc1ccccc1NC(=O)Nc1ccc(C(=O)NCc2ccc3c(c2)C(=O)N(CCC(=O)O)CC(=O)N3C)cc1 [BX29],825 nM
12,CN1C(=O)CN(CCC(=O)O)C(=O)c2cc(NC(=O)Cc3ccc(NC(=O)Nc4ccccc4)cc3)ccc21 [BX32],959 nM
13,Cc1ccccc1NC(=O)Nc1ccc(NC(=O)Cc2ccc3c(c2)C(=O)N(CCC(=O)O)CC(=O)N3C)cc1 [BX33],886 nM
14,CN1C(=O)CN(CCC(=O)O)C(=O)c2cc(NC(=O)Cc3ccc(NC(=O)Nc4ccccc4Cl)cc3)ccc21 [BX34],723 nM
15,Cc1ccccc1NC(=O)Nc1ccc(NC(=O)c2ccc3c(c2)NC(CC(=O)O)C(=O)N(C)C3)cc1 (stereo not shown) [BX36],646 nM
16,Cc1ccccc1NC(=O)Nc1ccc(CC(=O)Nc2cc3c(cc2Cl)N(C)C(=O)CN(CCC(=O)O)C3=O)cc1 [BX37],643 nM
17,Cc1ccccc1NC(=O)Nc1ccc(CC(=O)Nc2ccc3c(c2)C(=O)N(CCC(=O)O)C(C)C(=O)N3C)cc1 (stereo not shown) [BX38],550 nM
18,Cc1ccccc1NC(=O)Nc1ccc(CC(=O)Nc2ccc3c(c2)C(=O)N(CCC(=O)O)CC(=O)N3CCC(=O)O)cc1 [BX39],480 nM
19,Cc1ccccc1NC(=O)Nc1ccc(CC(=O)Nc2ccc3c(c2)C(=O)N(CCC(=O)O)CC(=O)N3C2CCCCC2)cc1 [BX40],438 nM
20,Cc1ccccc1NC(=O)Nc1ccc(CC(=O)Nc2ccc3c(c2)C(=O)N(C)CC(=O)N3CCC(=O)O)cc1 [BX42],326 nM
21,Cc1ccccc1NC(=O)Nc1ccc(CC(=O)Nc2ccc3c(c2)C(=O)N(CCC(=O)O)CC(=O)N3C2CCN(Cc3ccccc3)CC2)cc1 [BX43],273 nM
22,Cc1ccccc1NC(=O)Nc1ccc(CC(=O)Nc2ccc3c(c2)C(=O)N(CCC(=O)O)CC(=O)N3C)cc1 [BX44],257 nM
23,Cc1ccccc1NC(=O)Nc1ccc(CC(=O)Nc2ccc3c(c2)C(=O)N(CCC(=O)O)CC(=O)N3CC2CC2)cc1 [BX46],194 nM
24,Cc1ccccc1NC(=O)Nc1ccc(CC(=O)Nc2ccc3c(c2)C(=O)N(CCC(=O)O)CC(=O)N3Cc2ccc(F)cc2)cc1 [BX48],166 nM
25,CCC(C)N1C(=O)CN(CCC(=O)O)C(=O)c2cc(NC(=O)Cc3ccc(NC(=O)Nc4ccccc4C)cc3)ccc21 (stereo not shown) [BX49],163 nM
26,Cc1ccccc1NC(=O)Nc1ccc(CC(=O)Nc2ccc3c(c2)C(=O)N(CC(C)C(=O)O)CC(=O)N3C)cc1 (stereo not shown) [BX50],52.3 nM
27,Cc1ccccc1NC(=O)Nc1ccc(CC(=O)Nc2ccc3c(c2)C(=O)N(CCC(=O)O)CC(=O)N3CCc2ccccc2)cc1 [BX52],132 nM
